Measurements: patent US6420129B1, “Reagent composition for determination of electrolytes” (Toyo Boseki Kabushiki Kaisha, priority 1998, dated 2002)

Assays:
[1] = Visual observation of test solutions for deposition of crystals or white turbidity; assay type: physicochemical; parameters: key to turbidity (visual observation): +: turbidity found; −: no turbidity
Protocol: Among the reagents for the determination of calcium with the reagent formulations as described below, test enzyme solutions were prepared by the addition of glucosyl-α-cyclodextrin (G1αCD), maltosyl-α-cyclodextrin (G2αCD), glucosyl-p-cyclodextrin (G1βCD), or maltosyl-β-cyclodextrin(G2βCD) as a cyclodextrin derivative to have a concentration of 0, 1.5, 3, 6, or 12 mM. To the test enzyme solutions containing 3 mM glucosyl-β-cyclodextrin was further added independently N-acetylcysteine or reduced glutathione to have a concentration of 2.5, 5, 10, or 20 mM.
Both kinds of test solutions prepared by the above procedures were stored at 4° C. for 3 months. Visual observation of the test solutions was carried out just after the preparation and after the storage to examine whether there was found the deposition of crystals or the presence of white turbidity. The results are shown in table 1 for the visual observation just after the preparation and in Table 2 for the visual observation after the storage.
The test solutions were prepared in the same manner as described in Example 1, except that α-cyclodextrin (αCD) (1.5, 3, 6, or 12 mM), β-cyclodextrin (βCD) (1.5, 3, 6, or 12 mM), or γ-cyclodextrin (γCD) (1.5, 3, 6, or 12 mM) was independently added instead of the cyclodextrin derivatives and the SH group containing compounds in the above reagent formulations to have the respective concentrations as shown in Table 1. Both kinds of test solutions were stored at 4° C. for 3 months. Visual observation of the test solutions was carried out just after the preparation and after the storage to examine whether there was found the deposition of crystals or the presence of white turbidity. The results are shown in Table 1 for the visual observation just after the preparation and in Table 2 for the visual observation after the storage.

[2] = target: T1, Inactive α-amylase (from swine pancreas) (Sus scrofa, UniProt P00690); test: Residual activity of α-amylase in test enzyme solutions after storage; assay type: biochemical; details: after storage at 35° C. for 7 days
T1 construct: α-amylase derived from the swine pancreas; from tissue; host or cells: swine pancreas
T1 sequence (P00690 16-511): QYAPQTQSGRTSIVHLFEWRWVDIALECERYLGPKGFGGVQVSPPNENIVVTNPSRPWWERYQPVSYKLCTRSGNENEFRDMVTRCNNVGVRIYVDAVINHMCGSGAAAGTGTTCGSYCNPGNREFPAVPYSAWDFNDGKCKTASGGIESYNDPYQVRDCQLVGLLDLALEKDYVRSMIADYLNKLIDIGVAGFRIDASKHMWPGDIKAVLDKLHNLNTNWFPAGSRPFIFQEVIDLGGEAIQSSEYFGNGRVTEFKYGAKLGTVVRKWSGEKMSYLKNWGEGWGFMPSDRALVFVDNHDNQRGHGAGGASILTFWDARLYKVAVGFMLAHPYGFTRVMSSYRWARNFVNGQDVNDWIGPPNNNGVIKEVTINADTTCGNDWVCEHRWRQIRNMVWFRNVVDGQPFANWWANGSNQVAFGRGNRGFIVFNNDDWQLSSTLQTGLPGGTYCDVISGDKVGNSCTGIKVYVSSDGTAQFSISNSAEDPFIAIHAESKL
Protocol: [table] In the test enzyme solutions of the reagents for the determination of calcium with the reagent formulations as described above in Example 1, glucosyl-α-cyclodextrin, maltosyl-α-cyclodextrin, glucosyl-β-cyclodextrin, or maltosyl-β-cyclodextrin was independently added as a cyclodextrin derivative at 12 mM. […] Instead of the cyclodextrin derivatives and the SH group containing compounds in the reagent formulations as described above in Example 1, glucose (100 mM), maltose (50 mM), maltotriose (30 mM), α-cyclodextrin (1.5 mM), β-cyclodextrin (1.5 mM), γ-cyclodextrin (1.5 mM), N-acetylcysteine (20 mM), or reduced glutathione (20 mM) was independently added to have the respective concentrations as shown in Table 3.

[3] = target: T1, Inactive α-amylase (from swine pancreas); test: Relative sensitivity in determination of calcium with 10 mg/dl calcium standard solution; assay type: biochemical; details: for Relative sensitivity (%) when sensitivity in case of no addition is taken as 100%: just after the preparation, 10 mg/dl calcium standard; for sensitivity in the determination of the standard solution (in words): by addition of the agent, versus no addition
Protocol: [table] In the test enzyme solutions of the reagents for the determination of calcium with the reagent formulations as described above in Example 1, glucosyl-α-cyclodextrin, maltosyl-α-cyclodextrin, glucosyl-β-cyclodextrin, or maltosyl-β-cyclodextrin was independently added as a cyclodextrin derivative at 0, 1.5, 3, 6, or 12 mM. To the test enzyme solutions containing 3 mM glucosyl-β-cyclodextrin was further added independently N-acetylcysteine or reduced glutathione at 2.5, 5, 10, or 20 mM, and the determination of calcium ions with a calcium standard solution was carried out as described below. According to the method as described below, the determination of the amount of calcium was carried out for test solutions just after the preparation with 10 mg/dl calcium standard solution as a sample, and the relative sensitivity (%) was determined under the respective reagent conditions when the sensitivity in the case of no addition of cyclodextrin derivatives was taken as 100%. B. Method for the Determination of the Amount of Calcium To 5.8 μl of a sample was added 180 μl of a test enzyme solution, and the mixture was pre-warmed for 5 minutes, to which 90 μl of a test substrate solution was further added to make the reaction start. […] The measuring apparatus used was HITACHI Automatic Analyzer model 7170. The measurement wavelength was 405 nm for the principal wavelength and 546 nm for the second wavelength. The measurement was carried out at 37° C. […] The test solutions thus prepared were used for the determination of the calcium standard solution in the same manner as described in Example 3.

[4] = target: T1, Inactive α-amylase (from swine pancreas); test: as above; assay type: biochemical
[5] = after storage at 4° C. for 3 months, agent added 1.5 mM
[6] = after storage at 4° C. for 3 months, agent added 3 mM
[7] = after storage at 4° C. for 3 months, agent added 6 mM
[8] = after storage at 4° C. for 3 months, agent added 12 mM
[9] = just after the preparation, agent added 1.5 mM
[10] = just after the preparation, agent added 3 mM
[11] = just after the preparation, agent added 6 mM
[12] = just after the preparation, agent added 12 mM
[13] = after the storage at 4° C. for 3 months, at 3 mM
[14] = just after the preparation, at 6 mM

Structure (SMILES)	turbidity (visual observation) [1, 5]	turbidity (visual observation) [1, 6]	turbidity (visual observation) [1, 7]	turbidity (visual observation) [1, 8]	turbidity (visual observation) [1, 9]	turbidity (visual observation) [1, 10]	turbidity (visual observation) [1, 11]	turbidity (visual observation) [1, 12]	Residual activity (%) ([2]; agent 12 mM)	Relative sensitivity (%) when sensitivity in case of no addition is taken as 100% ([3]; agent 1.5 mM) [%]	Relative sensitivity (%) when sensitivity in case of no addition is taken as 100% ([3]; agent 3 mM) [%]	Relative sensitivity (%) when sensitivity in case of no addition is taken as 100% ([3]; agent 6 mM) [%]	Relative sensitivity (%) when sensitivity in case of no addition is taken as 100% ([3]; agent 12 mM) [%]	also measured
OCC1OC(OC2C(CO)OC(OCC3OC4OC5C(CO)OC(OC6C(CO)OC(OC7C(CO)OC(OC8C(CO)OC(OC9C(CO)OC(OC3C(O)C4O)C(O)C9O)C(O)C8O)C(O)C7O)C(O)C6O)C(O)C5O)C(O)C2O)C(O)C(O)C1O (stereo not drawn) [G2αCD, maltosyl-α-cyclodextrin]	−	−	−	−	−	−	−	−	82.3	112.5	123.0	119.4	122.8	
N[C@@H](CCC(=O)N[C@@H](CS)C(=O)NCC(=O)O)C(=O)O [GSH, reduced glutathione]														Residual activity (%) ([2]; agent 20 mM): 75.4%
OC[C@H]1O[C@@H]2O[C@H]3[C@H](O)[C@@H](O)[C@@H](O[C@H]4[C@H](O)[C@@H](O)[C@@H](O[C@H]5[C@H](O)[C@@H](O)[C@@H](O[C@H]6[C@H](O)[C@@H](O)[C@@H](O[C@H]7[C@H](O)[C@@H](O)[C@@H](O[C@H]8[C@H](O)[C@@H](O)[C@@H](O[C@H]9[C@H](O)[C@@H](O)[C@@H](O[C@H]1[C@H](O)[C@H]2O)O[C@@H]9CO)O[C@@H]8CO)O[C@@H]7CO)O[C@@H]6CO)O[C@@H]5CO)O[C@@H]4CO)O[C@@H]3CO [γCD, γ-cyclodextrin, reference compound]	−	−	+	+	−	−	+	+						turbidity of test enzyme solution (in words) [1, 13]: became turbid; turbidity of test enzyme solution (in words) [1, 14]: had already become turbid; Residual activity (%) ([2]; agent 1.5 mM): 74.6%
OC[C@H]1O[C@@H]2O[C@H]3[C@H](O)[C@@H](O)[C@@H](O[C@H]4[C@H](O)[C@@H](O)[C@@H](O[C@H]5[C@H](O)[C@@H](O)[C@@H](O[C@H]6[C@H](O)[C@@H](O)[C@@H](O[C@H]7[C@H](O)[C@@H](O)[C@@H](O[C@H]1[C@H](O)[C@H]2O)O[C@@H]7CO)O[C@@H]6CO)O[C@@H]5CO)O[C@@H]4CO)O[C@@H]3CO [αCD, α-cyclodextrin, reference compound]	−	−	+	+	−	−	+	+						turbidity of test enzyme solution (in words) [1, 13]: became turbid; turbidity of test enzyme solution (in words) [1, 14]: had already become turbid; Residual activity (%) ([2]; agent 1.5 mM): 70.5%
OC[C@H]1O[C@H](O[C@H]2[C@H](O)[C@@H](O)C(O)O[C@@H]2CO)[C@H](O)[C@@H](O)[C@@H]1O (mixture of isomers) [maltose]														remaining activity at 50000 µM ([2]; agent 50 mM): 73.5%; sensitivity in the determination of the standard solution (in words) [3]: remarkably decreased; Relative sensitivity (%) when sensitivity in case of no addition is taken as 100% ([4]; agent 6.3 mM): 99.7%; Relative sensitivity (%) when sensitivity in case of no addition is taken as 100% ([4]; agent 12.5 mM): 89.3%; Relative sensitivity (%) when sensitivity in case of no addition is taken as 100% ([4]; agent 25 mM): 83.9%; Relative sensitivity (%) when sensitivity in case of no addition is taken as 100% ([4]; agent 50 mM): 70.1%
CC(=O)N[C@@H](CS)C(=O)O [NAC, N-acetylcysteine]														remaining activity at 20000 µM ([2]; agent 20 mM): 71.2%
OCC1OC(OC2C(CO)OC(OC3C(CO)OC(O)C(O)C3O)C(O)C2O)C(O)C(O)C1O (stereo not drawn) [maltotriose]														Residual activity (%) ([2]; agent 30 mM): 77.3%; sensitivity in the determination of the standard solution (in words) [3]: remarkably decreased; Relative sensitivity (%) when sensitivity in case of no addition is taken as 100% ([4]; agent 3.8 mM): 47.1%; Relative sensitivity (%) when sensitivity in case of no addition is taken as 100% ([4]; agent 7.5 mM): 24.3%; Relative sensitivity (%) when sensitivity in case of no addition is taken as 100% ([4]; agent 15 mM): 7.4%; Relative sensitivity (%) when sensitivity in case of no addition is taken as 100% ([4]; agent 30 mM): 4.6%

Now from value to compound, other results behind:

turbidity (visual observation) [1, 5]	turbidity (visual observation) [1, 6]	turbidity (visual observation) [1, 7]	turbidity (visual observation) [1, 8]	turbidity (visual observation) [1, 9]	turbidity (visual observation) [1, 10]	turbidity (visual observation) [1, 11]	turbidity (visual observation) [1, 12]	Residual activity (%) ([2]; agent 12 mM)	Relative sensitivity (%) when sensitivity in case of no addition is taken as 100% ([3]; agent 1.5 mM) [%]	Relative sensitivity (%) when sensitivity in case of no addition is taken as 100% ([3]; agent 3 mM) [%]	Relative sensitivity (%) when sensitivity in case of no addition is taken as 100% ([3]; agent 6 mM) [%]	Relative sensitivity (%) when sensitivity in case of no addition is taken as 100% ([3]; agent 12 mM) [%]	Structure (SMILES)	also measured
−	−	−	−	−	−	−	−	93.0	122.8	120.7	120.2	123.0	OCC1OC(OC2C(CO)OC(OCC3OC4OC5C(CO)OC(OC6C(CO)OC(OC7C(CO)OC(OC8C(CO)OC(OC9C(CO)OC(OC%10C(CO)OC(OC3C(O)C4O)C(O)C%10O)C(O)C9O)C(O)C8O)C(O)C7O)C(O)C6O)C(O)C5O)C(O)C2O)C(O)C(O)C1O (stereo not drawn) [G2βCD, maltosyl-β-cyclodextrin]	
−	−	−	−	−	−	−	−	80.4	112.8	120.2	122.3	118.9	OCC1OC(OCC2OC3OC4C(CO)OC(OC5C(CO)OC(OC6C(CO)OC(OC7C(CO)OC(OC8C(CO)OC(OC2C(O)C3O)C(O)C8O)C(O)C7O)C(O)C6O)C(O)C5O)C(O)C4O)C(O)C(O)C1O (stereo not drawn) [G1αCD, glucosyl-α-cyclodextrin]	
